Measured values published in PubChem BioAssay AID1963842 (Molecular Pharmacology Branch, DTP, NCI, 2024).

Tested on: 677734-321-R-J1-PDC complex spheroid viability
Assay: Anticancer human tumor 677734-321-R-J1-PDC patient-derived soft tissue sarcoma cell line growth inhibition [POLQ]
Settings: for IC50: curve of first compound; for viability, T/C: stronger effect = lower value
In short: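 Complex spheroid viability model combining PDC tumour cells with endothelial (HUVEC) and MSC stromal cells. Novobiocin, ART-558 or RP6685 were tested singly and in combination with standard and investigational anticancer drugs. Each was titrated in half-log steps from near clinical Cmax, or from 10 microM where Cmax was unknown.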

[1] = second compound 0.0316 µM, first compound 0.00316 µM
[2] = second compound 0.0316 µM, first compound 0.01 µM
[3] = second compound 0.0316 µM, first compound 0.0316 µM
[4] = second compound 0.0316 µM, first compound 0.1 µM
[5] = second compound 0.0316 µM, first compound 0.316 µM
[6] = second compound 0.0316 µM, first compound 1 µM
[7] = second compound 0.1 µM, first compound 0.00316 µM
[8] = second compound 0.1 µM, first compound 0.01 µM
[9] = second compound 0.1 µM, first compound 0.0316 µM
[10] = second compound 0.1 µM, first compound 0.1 µM
[11] = second compound 0.1 µM, first compound 0.316 µM
[12] = second compound 0.1 µM, first compound 1 µM
[13] = second compound 0.316 µM, first compound 0.00316 µM
[14] = second compound 0.316 µM, first compound 0.01 µM
[15] = second compound 0.316 µM, first compound 0.0316 µM
[16] = second compound 0.316 µM, first compound 0.1 µM
[17] = second compound 0.316 µM, first compound 0.316 µM
[18] = second compound 0.316 µM, first compound 1 µM
[19] = second compound 1 µM, first compound 0.00316 µM
[20] = second compound 1 µM, first compound 0.01 µM
[21] = second compound 1 µM, first compound 0.0316 µM
[22] = second compound 1 µM, first compound 0.1 µM
[23] = second compound 1 µM, first compound 0.316 µM
[24] = second compound 1 µM, first compound 1 µM
[25] = second compound 3.16 µM, first compound 0.00316 µM
[26] = second compound 3.16 µM, first compound 0.01 µM
[27] = second compound 3.16 µM, first compound 0.0316 µM
[28] = second compound 3.16 µM, first compound 0.1 µM
[29] = second compound 3.16 µM, first compound 0.316 µM
[30] = second compound 3.16 µM, first compound 1 µM
[31] = second compound 10 µM, first compound 0.00316 µM
[32] = second compound 10 µM, first compound 0.01 µM
[33] = second compound 10 µM, first compound 0.0316 µM
[34] = second compound 10 µM, first compound 0.1 µM
[35] = second compound 10 µM, first compound 0.316 µM
[36] = second compound 10 µM, first compound 1 µM
[37] = second compound 0.0316 µM, first compound 3.16 µM
[38] = second compound 0.0316 µM, first compound 10 µM
[39] = second compound 0.1 µM, first compound 3.16 µM
[40] = second compound 0.1 µM, first compound 10 µM
[41] = second compound 0.316 µM, first compound 3.16 µM
[42] = second compound 0.316 µM, first compound 10 µM
[43] = second compound 1 µM, first compound 3.16 µM
[44] = second compound 1 µM, first compound 10 µM
[45] = second compound 3.16 µM, first compound 3.16 µM
[46] = second compound 3.16 µM, first compound 10 µM
[47] = second compound 10 µM, first compound 3.16 µM
[48] = second compound 10 µM, first compound 10 µM
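Further: spheroids exposed to compounds for one week.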
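Wherever viability, T/C is given: 100% = vehicle DMSO treated spheroids.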

CCc1c2c(nc3ccc(O)cc13)-c1cc3c(c(=O)n1C2)COC(=O)[C@]3(O)CC + Nc1ccc(C#CCN(C(=O)Cc2ncc(C(F)(F)F)cc2C(F)(F)F)c2ccc(F)cc2)nn1 was tested, and the IC50 (second compound 0.0316 µM) was < 3.16 nM, the IC50 (second compound 0.1 µM) was < 3.16 nM and the IC50 (second compound 0.316 µM) was < 3.16 nM. For the same compound, the IC50 (second compound 1 µM) was < 3.16 nM, the IC50 (second compound 3.16 µM) was < 3.16 nM and the IC50 (second compound 10 µM) was < 3.16 nM. The viability, T/C [1] was 22.2%, the viability, T/C [2] was 10.8% and the viability, T/C [3] was 5.47%. It also gave a viability, T/C [4] of 4.82%, a viability, T/C [5] of 4.02% and a viability, T/C [6] of 1.51%. For the same compound, the viability, T/C [7] was 19.4%, the viability, T/C [8] was 9.07% and the viability, T/C [9] was 6.31%. It also gave a viability, T/C [10] of 5.31%, a viability, T/C [11] of 3.85% and a viability, T/C [12] of 1.25%. It also gave a viability, T/C [13] of 24.3%, a viability, T/C [14] of 10.8% and a viability, T/C [15] of 5.47%. It also gave a viability, T/C [16] of 4.33%, a viability, T/C [17] of 3.5% and a viability, T/C [18] of 1.28%. It also gave a viability, T/C [19] of 22.5%, a viability, T/C [20] of 10.8% and a viability, T/C [21] of 5.38%. It also gave a viability, T/C [22] of 5.22%, a viability, T/C [23] of 4.16% and a viability, T/C [24] of 1.16%. For the same compound, the viability, T/C [25] was 22.5%, the viability, T/C [26] was 8.9% and the viability, T/C [27] was 5.24%. It also gave a viability, T/C [28] of 4.43%, a viability, T/C [29] of 5.24% and a viability, T/C [30] of 1.3%. The viability, T/C [31] was 25.9%, the viability, T/C [32] was 11% and the viability, T/C [33] was 6.72%. The viability, T/C [34] was 4.78%, the viability, T/C [35] was 3.27% and the viability, T/C [36] was 1.35%.
In the case of CNCc1ccc(-c2[nH]c3cc(F)cc4c3c2CCNC4=O)cc1 + Nc1ccc(C#CCN(C(=O)Cc2ncc(C(F)(F)F)cc2C(F)(F)F)c2ccc(F)cc2)nn1, the IC50 (second compound 0.0316 µM) is reported as > 10000 nM, the IC50 (second compound 0.1 µM) is reported as > 10000 nM and the IC50 (second compound 0.316 µM) is reported as > 10000 nM. For the same compound, the IC50 (second compound 1 µM) was > 10000 nM, the IC50 (second compound 3.16 µM) was > 10000 nM and the IC50 (second compound 10 µM) was > 10000 nM. It also gave a viability, T/C [3] of 90.2%, a viability, T/C [4] of 99.6% and a viability, T/C [5] of 100%. The viability, T/C [6] was 81%, the viability, T/C [37] was 101% and the viability, T/C [38] was 81.6%. It also gave a viability, T/C [9] of 113%, a viability, T/C [10] of 106% and a viability, T/C [11] of 107%. For the same compound, the viability, T/C [12] was 100%, the viability, T/C [39] was 106% and the viability, T/C [40] was 61.8%. For the same compound, the viability, T/C [15] was 100%, the viability, T/C [16] was 109% and the viability, T/C [17] was 106%. It also gave a viability, T/C [18] of 127%, a viability, T/C [41] of 94.5% and a viability, T/C [42] of 80.1%. For the same compound, the viability, T/C [21] was 118%, the viability, T/C [22] was 86.4% and the viability, T/C [23] was 106%. For the same compound, the viability, T/C [24] was 91.8%, the viability, T/C [43] was 88.7% and the viability, T/C [44] was 67.4%. It also gave a viability, T/C [27] of 97.7%, a viability, T/C [28] of 109% and a viability, T/C [29] of 109%. For the same compound, the viability, T/C [30] was 113%, the viability, T/C [45] was 101% and the viability, T/C [46] was 63.5%. It also gave a viability, T/C [33] of 97.4%, a viability, T/C [34] of 99.3% and a viability, T/C [35] of 89.2%. The viability, T/C [36] was 114%, the viability, T/C [47] was 107% and the viability, T/C [48] was 63.6%.
For COc1cccc(OCCCN)c1-c1cc(Nc2cnc(C#N)cn2)n[nH]1 + Nc1ccc(C#CCN(C(=O)Cc2ncc(C(F)(F)F)cc2C(F)(F)F)c2ccc(F)cc2)nn1, the IC50 (second compound 0.0316 µM) was 6.21 nM, the IC50 (second compound 0.1 µM) was 4.6 nM and the IC50 (second compound 0.316 µM) was 5.33 nM. For the same compound, the IC50 (second compound 1 µM) was 6.15 nM, the IC50 (second compound 3.16 µM) was 4.93 nM and the IC50 (second compound 10 µM) was 3.71 nM. It also gave a viability, T/C [1] of 101%, a viability, T/C [2] of 13.8% and a viability, T/C [3] of 5.82%. The viability, T/C [4] was 6.83%, the viability, T/C [5] was 7.28% and the viability, T/C [6] was 5.14%. For the same compound, the viability, T/C [7] was 67.2%, the viability, T/C [8] was 14.3% and the viability, T/C [9] was 6.58%. For the same compound, the viability, T/C [10] was 6.56%, the viability, T/C [11] was 8.96% and the viability, T/C [12] was 3.87%. It also gave a viability, T/C [13] of 77%, a viability, T/C [14] of 17.7% and a viability, T/C [15] of 5.86%. It also gave a viability, T/C [16] of 9.23%, a viability, T/C [17] of 6.18% and a viability, T/C [18] of 5.17%. It also gave a viability, T/C [19] of 83.6%, a viability, T/C [20] of 25.5% and a viability, T/C [21] of 6%. For the same compound, the viability, T/C [22] was 6.97%, the viability, T/C [23] was 6.56% and the viability, T/C [24] was 5.02%. It also gave a viability, T/C [25] of 72.7%, a viability, T/C [26] of 13.8% and a viability, T/C [27] of 9%. It also gave a viability, T/C [28] of 6.22%, a viability, T/C [29] of 7.97% and a viability, T/C [30] of 5.64%. The viability, T/C [31] was 56.6%, the viability, T/C [32] was 9.16% and the viability, T/C [33] was 6.91%. For the same compound, the viability, T/C [34] was 7.72%, the viability, T/C [35] was 6.82% and the viability, T/C [36] was 5.03%.
For O=C(c1cc(Cc2n[nH]c(=O)c3ccccc23)ccc1F)N1CCN(C(=O)C2CC2)CC1 + Nc1ccc(C#CCN(C(=O)Cc2ncc(C(F)(F)F)cc2C(F)(F)F)c2ccc(F)cc2)nn1, the IC50 (second compound 0.0316 µM) was > 10000 nM, the IC50 (second compound 0.1 µM) was > 10000 nM and the IC50 (second compound 0.316 µM) was > 10000 nM. The IC50 (second compound 1 µM) was > 10000 nM, the IC50 (second compound 3.16 µM) was > 10000 nM and the IC50 (second compound 10 µM) was > 10000 nM. The viability, T/C [3] was 97%, the viability, T/C [4] was 122% and the viability, T/C [5] was 101%. It also gave a viability, T/C [6] of 105%, a viability, T/C [37] of 88.1% and a viability, T/C [38] of 63.3%. It also gave a viability, T/C [9] of 110%, a viability, T/C [10] of 102% and a viability, T/C [11] of 98.6%. For the same compound, the viability, T/C [12] was 110%, the viability, T/C [39] was 83.8% and the viability, T/C [40] was 71.2%. The viability, T/C [15] was 110%, the viability, T/C [16] was 116% and the viability, T/C [17] was 104%. For the same compound, the viability, T/C [18] was 93.2%, the viability, T/C [41] was 96.1% and the viability, T/C [42] was 68.8%. For the same compound, the viability, T/C [21] was 109%, the viability, T/C [22] was 108% and the viability, T/C [23] was 96.5%. The viability, T/C [24] was 93%, the viability, T/C [43] was 92.7% and the viability, T/C [44] was 50.3%. The viability, T/C [27] was 123%, the viability, T/C [28] was 110% and the viability, T/C [29] was 89.4%. For the same compound, the viability, T/C [30] was 92.8%, the viability, T/C [45] was 90.9% and the viability, T/C [46] was 65.3%. For the same compound, the viability, T/C [33] was 109%, the viability, T/C [34] was 103% and the viability, T/C [35] was 103%. The viability, T/C [36] was 105%, the viability, T/C [47] was 91.9% and the viability, T/C [48] was 66.8%.
